Some targets named below: ACVR1 (Homo sapiens, UniProt Q04771); ALK (Homo sapiens, UniProt Q9UM73); BRSK2 (Homo sapiens, UniProt Q8IWQ3); CAMK4 (Homo sapiens, UniProt Q16566); CDK2 (Homo sapiens, UniProt P24941); EPHA3 (Homo sapiens, UniProt P29320); FER (Homo sapiens, UniProt P16591); FRK (Homo sapiens, UniProt P42685); IRAK1 (Homo sapiens, UniProt P51617); LYN (Homo sapiens, UniProt P07948); MYO3B (Homo sapiens, UniProt Q8WXR4); NEK11 (Homo sapiens, UniProt Q8NG66); NEK9 (Homo sapiens, UniProt Q8TD19); PAK4 (Homo sapiens, UniProt O96013); PHKG2 (Homo sapiens, UniProt P15735); PIK3CA(E545A) (Homo sapiens, UniProt P42336, E545A); TBK1 (Homo sapiens, UniProt Q9UHD2).

What all share (assay): biochemical
What all share (set-up): DiscoverX kinase panel, active-site competition binding (KINOMEscan type), percent of control at one concentration
Holding throughout (details): competition binding, percent of control

In test [1] the target is T1, ABL1(E255K)-phosphorylated (Homo sapiens, UniProt P00519, E255K).
T1 construct: phosphorylated

For the next test, the target named is T2, ARK5 (Homo sapiens, UniProt O60285).
T2 construct: gene NUAK1

The target of the next test is T3, CDK11 (Homo sapiens, UniProt Q9BWU1).
T3 construct: gene CDK19
T3 sequence (Q9BWU1 whole entry): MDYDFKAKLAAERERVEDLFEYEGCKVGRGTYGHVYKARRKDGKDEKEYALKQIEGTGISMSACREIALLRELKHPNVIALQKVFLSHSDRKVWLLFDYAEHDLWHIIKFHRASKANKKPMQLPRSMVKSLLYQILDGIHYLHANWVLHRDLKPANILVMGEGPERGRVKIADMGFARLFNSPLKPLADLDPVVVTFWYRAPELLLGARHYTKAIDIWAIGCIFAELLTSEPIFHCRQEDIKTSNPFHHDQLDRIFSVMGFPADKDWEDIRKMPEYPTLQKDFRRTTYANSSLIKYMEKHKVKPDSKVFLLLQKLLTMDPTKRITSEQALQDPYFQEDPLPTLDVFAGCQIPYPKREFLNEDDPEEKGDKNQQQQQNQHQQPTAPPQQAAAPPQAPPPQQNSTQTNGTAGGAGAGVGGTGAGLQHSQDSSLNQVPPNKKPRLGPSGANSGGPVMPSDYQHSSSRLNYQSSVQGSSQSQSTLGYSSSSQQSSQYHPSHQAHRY

A further test concerns the target T4, IKK-epsilon (Homo sapiens, UniProt Q14164).
T4 construct: gene IKBKE

In a further test the target is T5, LKB1 (Homo sapiens, UniProt Q15831).
T5 construct: gene STK11
T5 sequence (Q15831 whole entry): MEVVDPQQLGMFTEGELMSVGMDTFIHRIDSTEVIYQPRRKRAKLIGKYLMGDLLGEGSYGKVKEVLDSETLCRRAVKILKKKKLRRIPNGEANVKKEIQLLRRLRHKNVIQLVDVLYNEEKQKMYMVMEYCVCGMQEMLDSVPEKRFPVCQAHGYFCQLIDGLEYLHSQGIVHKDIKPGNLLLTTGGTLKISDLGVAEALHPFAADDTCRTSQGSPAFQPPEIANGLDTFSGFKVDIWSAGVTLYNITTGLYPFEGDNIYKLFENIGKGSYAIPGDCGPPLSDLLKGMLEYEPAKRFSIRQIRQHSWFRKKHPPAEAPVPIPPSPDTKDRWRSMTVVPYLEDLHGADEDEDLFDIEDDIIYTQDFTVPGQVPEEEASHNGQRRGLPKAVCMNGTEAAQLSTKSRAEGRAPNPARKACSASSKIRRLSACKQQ

Consider 1 molecule from publication PMC7206119, “RIP1 inhibition blocks inflammatory diseases but not tumor growth or metastases” (Cell Death and Differentiation, 2019).

Sequence of ACVR1 (Q04771 whole entry): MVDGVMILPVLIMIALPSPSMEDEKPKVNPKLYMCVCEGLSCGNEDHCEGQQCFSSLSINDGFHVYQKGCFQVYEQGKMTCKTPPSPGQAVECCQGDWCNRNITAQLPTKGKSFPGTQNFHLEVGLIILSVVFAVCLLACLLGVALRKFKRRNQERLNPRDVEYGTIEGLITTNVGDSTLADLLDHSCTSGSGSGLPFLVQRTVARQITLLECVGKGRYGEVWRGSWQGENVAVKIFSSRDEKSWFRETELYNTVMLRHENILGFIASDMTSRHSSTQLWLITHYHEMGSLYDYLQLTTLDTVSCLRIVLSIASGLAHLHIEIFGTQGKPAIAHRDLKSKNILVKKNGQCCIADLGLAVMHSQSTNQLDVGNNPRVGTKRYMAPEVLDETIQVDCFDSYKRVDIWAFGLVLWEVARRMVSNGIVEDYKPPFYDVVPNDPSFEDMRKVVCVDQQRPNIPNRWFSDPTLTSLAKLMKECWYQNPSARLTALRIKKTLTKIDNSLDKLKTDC
Sequence of FRK (P42685 whole entry): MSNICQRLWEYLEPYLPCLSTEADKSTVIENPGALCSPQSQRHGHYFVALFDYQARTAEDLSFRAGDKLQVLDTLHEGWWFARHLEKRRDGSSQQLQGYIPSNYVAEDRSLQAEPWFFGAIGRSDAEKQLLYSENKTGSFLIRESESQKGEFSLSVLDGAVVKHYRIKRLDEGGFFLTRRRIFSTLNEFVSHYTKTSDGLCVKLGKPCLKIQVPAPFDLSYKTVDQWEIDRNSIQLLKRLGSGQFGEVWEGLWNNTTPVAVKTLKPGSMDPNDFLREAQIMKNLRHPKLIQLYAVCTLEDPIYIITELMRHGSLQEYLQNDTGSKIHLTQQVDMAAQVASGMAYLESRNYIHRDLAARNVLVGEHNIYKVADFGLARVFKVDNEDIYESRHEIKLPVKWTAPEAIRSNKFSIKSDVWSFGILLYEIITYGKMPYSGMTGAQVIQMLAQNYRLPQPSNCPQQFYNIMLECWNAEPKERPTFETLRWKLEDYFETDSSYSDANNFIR
T4 sequence (Q14164 whole entry): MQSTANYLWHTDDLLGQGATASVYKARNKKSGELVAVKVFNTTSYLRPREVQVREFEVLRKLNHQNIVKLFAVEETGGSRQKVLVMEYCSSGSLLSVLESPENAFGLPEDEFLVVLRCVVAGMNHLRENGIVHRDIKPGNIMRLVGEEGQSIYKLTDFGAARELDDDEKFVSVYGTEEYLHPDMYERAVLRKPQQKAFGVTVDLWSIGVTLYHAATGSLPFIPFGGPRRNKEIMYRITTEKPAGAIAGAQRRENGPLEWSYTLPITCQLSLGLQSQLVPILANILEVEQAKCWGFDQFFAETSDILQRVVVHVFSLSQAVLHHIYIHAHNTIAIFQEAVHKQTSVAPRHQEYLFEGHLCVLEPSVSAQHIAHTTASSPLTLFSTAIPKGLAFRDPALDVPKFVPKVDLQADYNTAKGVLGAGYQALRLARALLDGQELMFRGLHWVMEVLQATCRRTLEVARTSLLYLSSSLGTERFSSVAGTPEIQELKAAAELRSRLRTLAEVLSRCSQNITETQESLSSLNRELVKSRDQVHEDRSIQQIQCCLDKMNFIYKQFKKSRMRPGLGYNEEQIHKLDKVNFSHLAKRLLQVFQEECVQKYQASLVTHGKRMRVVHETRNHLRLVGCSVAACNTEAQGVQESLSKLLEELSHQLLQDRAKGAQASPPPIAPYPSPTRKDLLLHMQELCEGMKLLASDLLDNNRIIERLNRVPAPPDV
Sequence of CAMK4 (Q16566 whole entry): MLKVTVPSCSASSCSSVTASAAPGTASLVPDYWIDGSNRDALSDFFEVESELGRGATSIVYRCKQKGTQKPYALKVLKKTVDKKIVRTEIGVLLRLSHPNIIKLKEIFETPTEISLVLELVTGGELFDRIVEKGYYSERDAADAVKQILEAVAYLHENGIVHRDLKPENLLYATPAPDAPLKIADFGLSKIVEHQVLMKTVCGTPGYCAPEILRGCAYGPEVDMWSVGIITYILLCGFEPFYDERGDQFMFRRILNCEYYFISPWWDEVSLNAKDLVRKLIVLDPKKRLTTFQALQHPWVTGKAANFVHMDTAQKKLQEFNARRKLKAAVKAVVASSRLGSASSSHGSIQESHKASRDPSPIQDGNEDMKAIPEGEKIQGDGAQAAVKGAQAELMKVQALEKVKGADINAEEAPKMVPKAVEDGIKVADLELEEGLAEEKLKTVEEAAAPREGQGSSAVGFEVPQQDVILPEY
Sequence of MYO3B (Q8WXR4 whole entry): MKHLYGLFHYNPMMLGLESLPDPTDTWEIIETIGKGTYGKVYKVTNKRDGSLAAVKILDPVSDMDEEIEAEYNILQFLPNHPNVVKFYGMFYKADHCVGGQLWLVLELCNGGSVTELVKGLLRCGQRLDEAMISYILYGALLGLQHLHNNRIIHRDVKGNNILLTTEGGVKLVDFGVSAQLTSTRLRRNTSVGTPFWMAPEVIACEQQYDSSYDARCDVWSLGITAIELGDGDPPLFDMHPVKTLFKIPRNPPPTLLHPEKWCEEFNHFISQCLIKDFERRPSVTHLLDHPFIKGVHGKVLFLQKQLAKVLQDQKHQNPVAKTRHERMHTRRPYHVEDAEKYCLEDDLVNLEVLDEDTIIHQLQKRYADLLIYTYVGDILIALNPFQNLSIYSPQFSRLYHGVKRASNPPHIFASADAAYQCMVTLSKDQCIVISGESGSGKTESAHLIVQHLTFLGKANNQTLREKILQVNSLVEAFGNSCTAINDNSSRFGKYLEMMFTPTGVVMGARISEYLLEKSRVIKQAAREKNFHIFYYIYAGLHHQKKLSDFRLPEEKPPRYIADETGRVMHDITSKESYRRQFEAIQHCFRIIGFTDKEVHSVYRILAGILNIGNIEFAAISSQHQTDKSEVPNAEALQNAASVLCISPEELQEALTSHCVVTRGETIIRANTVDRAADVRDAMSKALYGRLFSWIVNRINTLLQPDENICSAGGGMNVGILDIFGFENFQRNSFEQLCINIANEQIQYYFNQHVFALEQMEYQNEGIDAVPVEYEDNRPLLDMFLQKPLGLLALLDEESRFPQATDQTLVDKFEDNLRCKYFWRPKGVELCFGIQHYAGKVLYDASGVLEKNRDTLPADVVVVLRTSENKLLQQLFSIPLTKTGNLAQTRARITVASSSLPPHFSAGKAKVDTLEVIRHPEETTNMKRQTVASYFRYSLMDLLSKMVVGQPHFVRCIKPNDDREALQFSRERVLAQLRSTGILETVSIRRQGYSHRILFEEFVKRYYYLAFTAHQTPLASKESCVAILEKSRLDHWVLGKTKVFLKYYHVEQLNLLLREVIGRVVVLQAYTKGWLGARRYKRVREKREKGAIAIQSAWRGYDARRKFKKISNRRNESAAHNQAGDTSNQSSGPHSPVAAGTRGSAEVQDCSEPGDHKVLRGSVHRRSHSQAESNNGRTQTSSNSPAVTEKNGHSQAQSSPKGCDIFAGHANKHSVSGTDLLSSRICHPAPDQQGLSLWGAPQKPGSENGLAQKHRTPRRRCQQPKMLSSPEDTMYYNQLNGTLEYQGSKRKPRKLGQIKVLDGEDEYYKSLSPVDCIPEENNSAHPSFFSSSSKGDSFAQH
Sequence of LYN (P07948 whole entry): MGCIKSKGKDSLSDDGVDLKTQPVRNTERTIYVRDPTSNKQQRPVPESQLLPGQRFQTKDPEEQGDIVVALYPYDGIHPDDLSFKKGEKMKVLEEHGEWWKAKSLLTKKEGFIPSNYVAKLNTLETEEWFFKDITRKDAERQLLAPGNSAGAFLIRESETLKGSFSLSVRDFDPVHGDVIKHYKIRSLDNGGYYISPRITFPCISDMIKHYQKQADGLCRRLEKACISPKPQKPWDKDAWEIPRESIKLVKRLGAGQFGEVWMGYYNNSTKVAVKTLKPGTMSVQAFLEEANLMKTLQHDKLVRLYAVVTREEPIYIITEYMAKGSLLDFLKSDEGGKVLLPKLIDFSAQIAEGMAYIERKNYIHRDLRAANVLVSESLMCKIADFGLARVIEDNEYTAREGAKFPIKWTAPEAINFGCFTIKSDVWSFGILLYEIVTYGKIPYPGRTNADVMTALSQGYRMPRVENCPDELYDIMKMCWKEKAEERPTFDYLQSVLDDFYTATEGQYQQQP

For `COc1cc2c(cn1)N(C)C(=O)[C@@H](NC(=O)c1nc3n(n1)[C@H](c1ccccc1)CC3)CC2` [GNE684, (S)-N-((S)-7-methoxy-1-methyl-2-oxo-2,3,4,5-tetrahydro-1H-pyrido[3,4-b]azepin-3-yl)-5-phenyl-6,7-dihydro-5H-pyrrolo[1,2-b][1,2,4]triazole-2-carboxamide], the remaining binding at 10 µM in test [1] was found to be 91%; at ACVR1 it was 100%; at ALK, 81%; on ARK5 it was 94%; at BRSK2, 89%; on CAMK4 it was 86%. The remaining binding at 10 µM at CDK11 came to 81%; on CDK2, 100%; on EPHA3, 91%; at FER it was 90%; at FRK, 100%; at IKK-epsilon, 88%. Moreover, the remaining binding at 10 µM on IRAK1 worked out at 96%; at LKB1 it was 100%; at LYN, 94%; at MYO3B, 89%; on NEK11 it was 100%; on NEK9 it was 99%. Besides, the remaining binding at 10 µM at PAK4 is 93%; on PHKG2, 75%; at PIK3CA(E545A) it was 100%; at TBK1, 94%.
